The results in this text go back to patent US12502434B2, “Compound comprising EZH2 inhibitor and E3 ligase binder and pharmaceutical composition for preventing or treating EZH2-associated disease comprising same as active ingredient” (DAEGU-GYEONGBUK MEDICAL INNOVATION FOUNDATION, priority 2019, dated 2025).

The assay has as its target T1, EZH2 protein in LS174T cells (Homo sapiens, UniProt Q15910).
T1 construct: endogenous in cells; host or cells: LS174T
The experiment in a line: Proteolytic effect in colorectal cancer cells (Western blotting). It counts as cell-based. Here is the method:
After 72 hours of the treatment, the cells were collected and lysed using RIPA buffer (50 mM Tris, pH 7.5, 150 mM NaCl, 1% Triton X-100, 0.1% SDS, […], 0.5% deoxycholate, and protease inhibitor cocktail), followed by sonication (30 sec on/30 sec off, 5 cycles) to prepare a cell lysate.

[1] abbreviates: EZH2 protein, LS174T cells, 1 μM, 72 hours.
Where [2] appears, read: EZH2 protein, LS174T cells, 1 uM, 72 hours, Western blotting.

SMILES strings stand for the structures. Read-outs that look alike come from different tables or passages of the source.

T1 sequence (Q15910 whole entry): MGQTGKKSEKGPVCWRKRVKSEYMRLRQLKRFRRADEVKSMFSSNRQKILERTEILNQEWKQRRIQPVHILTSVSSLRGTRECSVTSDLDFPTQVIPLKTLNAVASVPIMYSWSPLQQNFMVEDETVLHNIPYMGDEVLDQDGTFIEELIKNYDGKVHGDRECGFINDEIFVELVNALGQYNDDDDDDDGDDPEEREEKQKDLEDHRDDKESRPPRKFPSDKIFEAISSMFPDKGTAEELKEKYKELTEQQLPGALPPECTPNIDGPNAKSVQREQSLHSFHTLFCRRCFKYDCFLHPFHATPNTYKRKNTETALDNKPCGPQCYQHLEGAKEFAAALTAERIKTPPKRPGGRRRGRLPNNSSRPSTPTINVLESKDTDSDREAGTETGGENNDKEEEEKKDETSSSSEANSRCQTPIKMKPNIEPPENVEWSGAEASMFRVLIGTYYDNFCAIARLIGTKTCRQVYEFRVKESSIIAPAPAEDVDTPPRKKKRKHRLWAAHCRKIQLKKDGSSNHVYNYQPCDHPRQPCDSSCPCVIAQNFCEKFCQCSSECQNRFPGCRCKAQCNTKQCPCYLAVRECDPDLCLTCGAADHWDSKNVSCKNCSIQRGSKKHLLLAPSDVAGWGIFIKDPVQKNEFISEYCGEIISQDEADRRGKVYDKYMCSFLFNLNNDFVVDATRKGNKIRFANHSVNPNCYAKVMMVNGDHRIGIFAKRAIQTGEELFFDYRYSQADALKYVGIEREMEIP
T1 sequence (O75530 whole entry partner): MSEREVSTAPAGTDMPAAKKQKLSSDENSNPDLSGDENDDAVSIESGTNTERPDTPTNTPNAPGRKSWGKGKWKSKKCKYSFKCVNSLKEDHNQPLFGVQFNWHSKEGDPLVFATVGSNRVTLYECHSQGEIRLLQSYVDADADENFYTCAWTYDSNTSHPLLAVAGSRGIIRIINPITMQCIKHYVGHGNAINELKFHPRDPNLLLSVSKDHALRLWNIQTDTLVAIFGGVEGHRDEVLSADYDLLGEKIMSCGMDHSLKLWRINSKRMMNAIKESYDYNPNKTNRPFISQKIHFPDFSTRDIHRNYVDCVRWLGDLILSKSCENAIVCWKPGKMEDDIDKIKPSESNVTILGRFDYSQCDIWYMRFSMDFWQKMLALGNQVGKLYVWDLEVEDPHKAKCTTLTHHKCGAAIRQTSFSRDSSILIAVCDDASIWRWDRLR
T1 sequence (Q15022 whole entry partner): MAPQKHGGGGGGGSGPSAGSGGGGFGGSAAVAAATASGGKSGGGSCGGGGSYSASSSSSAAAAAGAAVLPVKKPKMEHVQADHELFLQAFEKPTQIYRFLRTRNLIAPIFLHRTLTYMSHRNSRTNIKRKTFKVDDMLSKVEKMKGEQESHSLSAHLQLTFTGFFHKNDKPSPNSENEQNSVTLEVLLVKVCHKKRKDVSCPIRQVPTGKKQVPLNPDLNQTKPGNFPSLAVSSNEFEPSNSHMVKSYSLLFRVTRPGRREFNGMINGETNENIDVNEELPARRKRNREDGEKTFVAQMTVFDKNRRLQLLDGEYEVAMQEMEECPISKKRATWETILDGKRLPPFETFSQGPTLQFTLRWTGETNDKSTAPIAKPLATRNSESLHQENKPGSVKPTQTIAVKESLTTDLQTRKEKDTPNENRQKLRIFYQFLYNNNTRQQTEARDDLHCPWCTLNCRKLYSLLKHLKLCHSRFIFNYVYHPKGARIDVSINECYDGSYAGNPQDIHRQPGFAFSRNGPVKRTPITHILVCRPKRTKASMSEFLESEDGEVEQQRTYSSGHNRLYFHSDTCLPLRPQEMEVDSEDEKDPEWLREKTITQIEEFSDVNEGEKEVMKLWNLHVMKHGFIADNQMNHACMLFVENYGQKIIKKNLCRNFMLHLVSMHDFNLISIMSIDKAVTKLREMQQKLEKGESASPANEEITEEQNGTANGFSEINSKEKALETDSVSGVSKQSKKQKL

In the case of `CCN(c1cc(-c2ccc(CN3CCN(CC(=O)NCCOCCOCCOCCC(=O)NCCNc4cccc5c4C(=O)N(C4CCC(=O)NC4=O)C5=O)CC3)cc2)cc(C(=O)NCc2c(C)cc(C)[nH]c2=O)c1C)C1CCOCC1` (stereo not shown) [Example 4, N-((4,6-dimethyl-2-oxo-1,2-dihydropyridine-3-yl)methyl)-4′-((4-(18-((2-(2,6-dioxopiperidine-3-yl)-1,3-dioxoisoindoline-4-yl)amino)-2,15-dioxo-6,9,12-trioxa-3,16-diazaoctadecyl)piperazine-1-yl)methyl)-5-(ethyl(tetrahydro-2H-pyran-4-yl)amino)-4-methyl-[1,1′-biphenyl]-3-carboxamide], the “Grade (percent value of the protein degradation when treated with 1 μM)” value under setting [1] is listed as “D (<25%)”. For the same molecule, under setting [2], the “%, degradation at 1 uM” value worked out at 0%.
For `CCN(c1cc(-c2ccc(CN3CCN(CCOCCCCCCNc4cccc5c4C(=O)N(C4CCC(=O)NC4=O)C5=O)CC3)cc2)cc(C(=O)NCc2c(C)cc(C)[nH]c2=O)c1C)C1CCOCC1` (stereo not shown) [Example 19, N-((4,6-dimethyl-2-oxo-1,2-dihydropyridine-3-yl)methyl)-4′-((4-(2-((6-((2-(2,6-dioxopiperidine-3-yl)-1,3-dioxoisoindoline-4-yl)amino)hexyl)oxy)ethyl)piperazine-1-yl)methyl)-5-(ethyl(tetrahydro-2H-pyran-4-yl)amino)-4-methyl-[1,1′-biphenyl]-3-carboxamide] the same measures were “D (<25%)” and 9.07%.
Regarding `CCN(c1cc(-c2ccc(CN3CCN(CC(=O)NCCCOCCOc4cccc5c4C(=O)N(C4CCC(=O)NC4=O)C5=O)CC3)cc2)cc(C(=O)NCc2c(C)cc(C)[nH]c2=O)c1C)C1CCOCC1` (stereo not shown) [Example 17, N-((4,6-dimethyl-2-oxo-1,2-dihydropyridine-3-yl)methyl)-4′-((4-(2-((3-(2-((2-(2,6-dioxopiperidine-3-yl)-1,3-dioxoisoindoline-4-yl)oxy)ethoxy)propyl)amino)-2-oxoethyl)piperazine-1-yl)methyl)-5-(ethyl(tetrahydro-2H-pyran-4-yl)amino)-4-methyl-[1,1′-biphenyl]-3-carboxamide], the “%, degradation at 1 uM” value was found to be 3.25% and the “Grade (percent value of the protein degradation when treated with 1 μM)” value is listed as “D (key: A: >75%; B: 50-75%; C: 25-50%; D: <25%)”.
With `CCN(c1cc(-c2ccc(CN3CCN(Cc4cn(CCOCCNc5cccc6c5C(=O)N(C5CCC(=O)NC5=O)C6=O)nn4)CC3)cc2)cc(C(=O)NCc2c(C)cc(C)[nH]c2=O)c1C)C1CCOCC1` (stereo not shown) [Example 24, N-((4,6-dimethyl-2-oxo-1,2-dihydropyridine-3-yl)methyl)-4′-((4-((1-(2-(2-((2-(2,6-dioxopiperidine-3-yl)-1,3-dioxoisoindoline-4-yl)amino)ethoxy)ethyl)-1H-1,2,3-triazole-4-yl)methyl)piperazine-1-yl)methyl)-5-(ethyl(tetrahydro-2H-pyran-4-yl)amino)-4-methyl-[1,1′-biphenyl]-3-carboxamide], the “Grade (percent value of the protein degradation when treated with 1 μM)” value under setting [1] is “D (<25%)”. Further, the “%, degradation at 1 uM” value under setting [2] is 0%.
For `CCN(c1cc(-c2ccc(CN3CCN(CC(=O)N4CCC5(CCN(CCCC(=O)N[C@H](C(=O)N6C[C@H](O)C[C@H]6C(=O)NCc6ccc(-c7scnc7C)cc6)C(C)(C)C)CC5)CC4)CC3)cc2)cc(C(=O)NCc2c(C)cc(C)[nH]c2=O)c1C)C1CCOCC1` [Example 45, (2S,4R)-1-((S)-2-(4-(9-(2-(4-((3′-(((4,6-dimethyl-2-oxo-1,2-dihydropyridine-3-yl)methyl)carbamoyl)-5′-(ethyl(tetrahydro-2H-pyran-4-yl)amino)-4′-methyl-[1,1′-biphenyl]-4-yl)methyl)piperazine-1-yl)acetyl)-3,9-diazaspiro[5.5]undecane-3-yl)butanamido)-3,3-dimethylbutanoyl)-4-hydroxy-N-(4-(4-methylthiazole-5-yl)benzyl)pyrrolidine-2-carboxamide], the “Grade (percent value of the protein degradation when treated with 1 μM)” value under setting [1] is on record as “A (>75%)”. Moreover, the “%, degradation at 1 uM” value under setting [2] is recorded as 76.02%. The “effect of degrading EZH2 protein when treated to colorectal cancer cells (in words)” value (LS174T cells) is listed as “excellent effects”.
Turning to `CCN(c1cc(-c2ccc(CN3CCN(CC(=O)NCCOCCCNc4cccc5c4C(=O)N(C4CCC(=O)NC4=O)C5=O)CC3)cc2)cc(C(=O)NCc2c(C)cc(C)[nH]c2=O)c1C)C1CCOCC1` (stereo not shown) [Example 16, N-((4,6-dimethyl-2-oxo-1,2-dihydropyridine-3-yl)methyl)-4′-((4-(2-((2-(3-((2-(2,6-dioxopiperidine-3-yl)-1,3-dioxoisoindoline-4-yl)amino)propoxy)ethyl)amino)-2-oxoethyl)piperazine-1-yl)methyl)-5-(ethyl(tetrahydro-2H-pyran-4-yl)amino)-4-methyl-[1,1′-biphenyl]-3-carboxamide], the “%, degradation at 1 uM” value worked out at 5.51% and the “Grade (percent value of the protein degradation when treated with 1 μM)” value was “D (key: A: >75%; B: 50-75%; C: 25-50%; D: <25%)”.
In the case of `CCN(c1cc(-c2ccc(CN3CCN(CC(=O)NCCCOCCN[C@H](C(=O)N4C[C@H](O)C[C@H]4C(=O)NCc4ccc(-c5scnc5C)cc4)C(C)(C)C)CC3)cc2)cc(C(=O)NCc2c(C)cc(C)[nH]c2=O)c1C)C1CCOCC1` [Example 39, (2S,4R)-1-((S)-2-((2-(3-(2-(4-((3′-(((4,6-dimethyl-2-oxo-1,2-dihydropyridine-3-yl)methyl)carbamoyl)-5′-(ethyl(tetrahydro-2H-pyran-4-yl)amino)-4′-methyl-[1,1′-biphenyl]-4-yl)methyl)piperazine-1-yl)acetamido)propoxy)ethyl)amino)-3,3-dimethylbutanoyl)-4-hydroxy-N-(4-(4-methylthiazole-5-yl)benzyl)pyrrolidine-2-carboxamide], under setting [1], the “Grade (percent value of the protein degradation when treated with 1 μM)” value is “D (<25%)”. Besides, the “%, degradation at 1 uM” value under setting [2] worked out at 0%.
The corresponding values for `CCN(c1cc(-c2ccc(CN3CCN(CCCCCCCNc4cccc5c4C(=O)N(C4CCC(=O)NC4=O)C5=O)CC3)cc2)cc(C(=O)NCc2c(C)cc(C)[nH]c2=O)c1C)C1CCOCC1` (stereo not shown) [Example 11, N-((4,6-dimethyl-2-oxo-1,2-dihydropyridine-3-yl)methyl)-4′-((4-(7-((2-(2,6-dioxopiperidine-3-yl)-1,3-dioxoisoindoline-4-yl)amino)heptyl)piperazine-1-yl)methyl)-5-(ethyl(tetrahydro-2H-pyran-4-yl)amino)-4-methyl-[1,1′-biphenyl]-3-carboxamide] are “D (<25%)” and 12.87%.
Turning to `CCN(c1cc(-c2ccc(CN3CCN(CC(=O)NCCNc4cccc5c4C(=O)N(C4CCC(=O)NC4=O)C5=O)CC3)cc2)cc(C(=O)NCc2c(C)cc(C)[nH]c2=O)c1C)C1CCOCC1` (stereo not shown) [Example 1, N-((4,6-dimethyl-2-oxo-1,2-dihydropyridine-3-yl)methyl)-4′-((4-(2-((2-((2-(2,6-dioxopiperidine-3-yl)-1,3-dioxoisoindoline-4-yl)amino)ethyl)amino)-2-oxoethyl)piperazine-1-yl)methyl)-5-(ethyl(tetrahydro-2H-pyran-4-yl)amino)-4-methyl-[1,1′-biphenyl]-3-carboxamide], the “Grade (percent value of the protein degradation when treated with 1 μM)” value under setting [1] is “D (<25%)”. The “%, degradation at 1 uM” value under setting [2] is recorded as 8.15%.
With `CCN(c1cc(-c2ccc(CN3CCN(CC(=O)NCCCCCCNc4cccc5c4CN(C4CCC(=O)NC4=O)C5=O)CC3)cc2)cc(C(=O)NCc2c(C)cc(C)[nH]c2=O)c1C)C1CCOCC1` (stereo not shown) [Example 20, N-((4,6-dimethyl-2-oxo-1,2-dihydropyridine-3-yl)methyl)-4′-((4-(2-((6-((2-(2,6-dioxopiperidine-3-yl)-1-oxoisoindoline-4-yl)amino)hexyl)amino)-2-oxoethyl)piperazine-1-yl)methyl)-5-(ethyl(tetrahydro-2H-pyran-4-yl)amino)-4-methyl[1,1′-biphenyl]-3-carboxamide], the “%, degradation at 1 uM” value worked out at 58.73% and the “Grade (percent value of the protein degradation when treated with 1 μM)” value was “B (key: A: >75%; B: 50-75%; C: 25-50%; D: <25%)”.
As for `CCN(c1cc(-c2ccc(CN3CCN(C(=O)c4cn(CCCNc5cccc6c5C(=O)N(C5CCC(=O)NC5=O)C6=O)nn4)CC3)cc2)cc(C(=O)NCc2c(C)cc(C)[nH]c2=O)c1C)C1CCOCC1` (stereo not shown) [Example 25, N-((4,6-dimethyl-2-oxo-1,2-dihydropyridine-3-yl)methyl)-4′-((4-(1-(3-((2-(2,6-dioxopiperidine-3-yl)-1,3-dioxoisoindoline-4-yl)amino)propyl)-1H-1,2,3-triazole-4-carbonyl)piperazine-1-yl)methyl)-5-(ethyl(tetrahydro-2H-pyran-4-yl)amino)-4-methyl[1,1′-biphenyl]-3-carboxamide], the “Grade (percent value of the protein degradation when treated with 1 μM)” value under setting [1] is given as “D (<25%)”. The “%, degradation at 1 uM” value under setting [2] came to 7.41%.
The corresponding values for `CCN(c1cc(-c2ccc(CN3CCN(CC(=O)N4CCC5(CCN(CCCCNc6cccc7c6C(=O)N(C6CCC(=O)NC6=O)C7=O)C5)C4)CC3)cc2)cc(C(=O)NCc2c(C)cc(C)[nH]c2=O)c1C)C1CCOCC1` (stereo not shown) [Example 34, N-((4,6-dimethyl-2-oxo-1,2-dihydropyridine-3-yl)methyl)-4′-((4-(2-(7-(4-((2-(2,6-dioxopiperidine-3-yl)-1,3-dioxoisoindoline-4-yl)amino)butyl)-2,7-diazaspiro[4.4]nonane-2-yl)-2-oxoethyl)piperazine-1-yl)methyl)-5-(ethyl(tetrahydro-2H-pyran-4-yl)amino)-4-methyl-[1,1′-biphenyl]-3-carboxamide] are “D (<25%)” and 0%.
